Assays:
Format in all cases: physicochemical
[1] = Stability test (influence factors: high-humidity, light irradiation, accelerated test); sample purity measured; details: for purity of the sample, accelerated test: accelerated test 40° C.±2° C., relative humidity 75%±5%; for purity of the sample, initial value: day 0, initial value; for purity of the sample, high-humidity test: high-humidity 25° C., 92.5% RH; for purity of the sample, light irradiation test: light irradiation 10000 lx±500 lx
From the text: The tests last for 10 days. Samples were taken on days 0, 5 and 10 to measure the purities of the samples so as to determine their stabilities.

[2] = Moisture content after storage under high humidity and accelerated test conditions; details: high humidity (25° C., 92.5% RH) and accelerated test conditions (40±2° C., 75%±5% RH) for 10 days
[3] = Intrinsic dissolution rate, rotating disk method (USP Chapter 1087); details: 700 ml 0.1 mol/L hydrochloric acid, 300 rpm, 37° C., detection 287 nm
Experimental: Intrinsic dissolution rates of the crystalline Form A of nintedanib diethanesulfonate prepared in Example 1 and the crystalline form of nintedanib diethanesulfonate prepared according to WO2012068441 (the existing crystal) were determined by using the intrinsic dissolution rotating disk method in Chapter 1087 of the U.S. Pharmacopeia, and the results are shown in Table 2. Dissolution Medium: 700 ml of 0.1 mol/L hydrochloric acid solution, Rotating Speed: 300 rpm, Detection Wavelength: 287 nm, Medium Temperature: 37° C.

Row | SMILES | purity of the sample, accelerated test ([1]; day 10) | purity of the sample, initial value [1] | purity of the sample, high-humidity test ([1]; day 5) | purity of the sample, high-humidity test ([1]; day 10) | purity of the sample, light irradiation test ([1]; day 5) | purity of the sample, light irradiation test ([1]; day 10) | moisture content ([2]; listed as crystalline Form A of nintedanib diethanesulfonate) | Average dissolution rate [3] | Maximum dissolution rate [3] | character (appearance) after storage [2] | moisture content ([2]; listed as crystalline form of nintedanib diethanesulfonate prepared according to WO2012068)
1 | CCS(=O)(=O)O.COC(=O)c1ccc2c(c1)NC(=O)/C2=C(\Nc1ccc(N(C)C(=O)CN2CCN(C)CC2)cc1)c1ccccc1 [The crystalline Form A, nintedanib diethanesulfonate] | 99.77% | 99.80% | 99.78% | 99.79% | 99.79% | 99.70% | essentially unchanged | 22.508 µg/mL/min | 23.344 µg/mL/min |  | 
2 | CCS(=O)(=O)O.COC(=O)c1ccc2c(c1)NC(=O)/C2=C(\Nc1ccc(N(C)C(=O)CN2CCN(C)CC2)cc1)c1ccccc1 [The existing crystal, nintedanib diethanesulfonate] | 95.10% | 99.78% | 99.72% | 99.67% | 99.73% | 99.19% |  | 13.373 µg/mL/min | 14.689 µg/mL/min | absorbs moisture to become clumping | increases significantly
